Measured values published in US7786141B2 (Vertex Pharmaceuticals Incorporated, priority 2004, dated 2010).
Read-outs that look alike come from different tables or passages of the source.

Experiments:
[1] = target: T1, M4 muscarinic receptor (Homo sapiens, UniProt P08173); assay: Functional mobilization of intracellular calcium (FLIPR) in M4-CHO cells; format: cell-based; details: for EC50: CHO cells expressing M4, calcium mobilization
T1 construct: expressed in transfected cells; host or cells: CHO (M4-CHO)
T1 sequence (P08173 1-479): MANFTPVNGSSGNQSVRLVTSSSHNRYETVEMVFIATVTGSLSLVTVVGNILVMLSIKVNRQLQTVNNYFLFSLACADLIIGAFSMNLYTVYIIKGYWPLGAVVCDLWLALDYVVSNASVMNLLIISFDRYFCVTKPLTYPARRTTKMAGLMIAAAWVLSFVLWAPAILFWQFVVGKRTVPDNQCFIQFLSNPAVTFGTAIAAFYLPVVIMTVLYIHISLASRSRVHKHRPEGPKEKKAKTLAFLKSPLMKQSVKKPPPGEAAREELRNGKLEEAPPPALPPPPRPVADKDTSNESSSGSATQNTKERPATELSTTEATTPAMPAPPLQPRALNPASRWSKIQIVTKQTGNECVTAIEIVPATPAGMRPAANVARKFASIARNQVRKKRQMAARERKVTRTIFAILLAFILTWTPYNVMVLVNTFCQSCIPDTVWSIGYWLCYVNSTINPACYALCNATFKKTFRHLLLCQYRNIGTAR
Method in brief: (§1)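 Intracellular calcium rise is measured by FLIPR fluorescence over 60 sec in CHO cells carrying human M1 or M4 receptors. Compounds are tested alone as agonists, or pre-incubated 15 min (or co-applied) ahead of carbachol at its EC80 to detect inhibition.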

[2] = target: T2, M1 muscarinic receptor (Homo sapiens, UniProt P11229); assay: Functional mobilization of intracellular calcium (FLIPR) in M1-CHO cells; format: cell-based; details: for EC50: CHO cells expressing M1, calcium mobilization
T2 construct: expressed in transfected cells; host or cells: CHO (M1-CHO)
T2 sequence (P11229 1-460): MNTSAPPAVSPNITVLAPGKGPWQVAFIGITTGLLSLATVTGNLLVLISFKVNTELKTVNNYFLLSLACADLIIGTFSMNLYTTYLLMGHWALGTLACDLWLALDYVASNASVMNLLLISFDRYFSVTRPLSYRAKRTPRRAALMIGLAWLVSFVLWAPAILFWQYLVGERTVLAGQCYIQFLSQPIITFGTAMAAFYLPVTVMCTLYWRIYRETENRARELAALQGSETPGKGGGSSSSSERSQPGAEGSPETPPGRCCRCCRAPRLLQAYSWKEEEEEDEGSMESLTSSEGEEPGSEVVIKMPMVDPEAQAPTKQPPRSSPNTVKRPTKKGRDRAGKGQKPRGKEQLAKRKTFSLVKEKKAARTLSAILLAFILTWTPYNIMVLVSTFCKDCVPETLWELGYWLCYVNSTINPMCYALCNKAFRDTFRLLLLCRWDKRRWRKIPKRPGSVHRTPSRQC
Method in brief: as §1

[3] = M4 receptor, calcium mobilization
[4] = M4 receptor, calcium mobilization, read-out: M4 Efficacy
[5] = M1 receptor, calcium mobilization
[6] = M1 receptor, calcium mobilization, read-out: M1 Efficacy
[7] = Table 4, 100% efficacy is the maximum response obtained with the Carbachol control
[8] = Table 4, modulating M4 receptor
[9] = Table 4, modulating M1 receptor
[10] = Table 4, M4 receptor, calcium mobilization (FLIPR)
[11] = Table 4, M1 receptor, calcium mobilization (FLIPR)
[12] = 100% efficacy is the maximum response obtained with the Carbachol control, Table 5

## CCOC(=O)N[C@@H]1CC2(CCN(C[C@H]3C[C@H]4CC[C@H]3C4)CC2)c2ccccc21 [compound 275]
[1]; [3]
  M4 Activity: xx (activity was measured to be between 0.1 μM and 1.0 μM)
[1]; [4]
  Emax: > 85%
[2]; [5]
  M1 Activity: xxx (activity was measured to be less than 0.1 μM)
[2]; [6]
  Emax: 65 to 85%

## CN(C)C(=O)N1CC2(CCN(C3CCN(C(=O)C4COc5ccccc5O4)CC3)CC2)c2cc(F)ccc21 (stereo not drawn) [compound 781]
[1]; [7]
  Emax: < 25%
[1]; [8]
  M4 Activity: x (activity was measured to be greater than 5.0 μM)
[2]; [7]
  Emax: 25 to 100%
[2]; [9]
  M1 Activity: x (activity was measured to be greater than 5.0 μM)

## CCOC(=O)N1CCC(N2CCC3(CC2)CN(c2ccccc2OC)c2ccc(F)cc23)CC1 [compound 717]
[1]; [7]
  Emax: 25 to 100%
[1]; [8]
  M4 Activity: xxx (activity was measured to be less than 2.0 μM)
[2]; [7]
  Emax: 25 to 100%
[2]; [9]
  M1 Activity: xxx (activity was measured to be less than 2.0 μM)

## CCCOC(=O)N1C2CCC1CC(N1CCC3(CC1)CN(C(=O)C1CCC1)c1ccc(F)cc13)C2 (stereo not drawn) [compound 302]
[1]; [3]
  M4 Activity: x (activity was measured to be greater than 1.0 μM)
[1]; [4]
  Emax: < 65%
[2]; [5]
  M1 Activity: x (activity was measured to be greater than 1.0 μM)
[2]; [6]
  Emax: < 65%

## COCCOC(=O)N1C2CCC1CC(N1CCC3(CC1)CN(C(=O)O[C@@H]1CCOC1)c1ccc(F)cc13)C2 (stereo partly drawn) [compound 162]
[1]; [3]
  M4 Activity: x (activity was measured to be greater than 1.0 μM)
[1]; [4]
  Emax: > 85%
[2]; [5]
  M1 Activity: xxx (activity was measured to be less than 0.1 μM)
[2]; [6]
  Emax: 65 to 85%

## CCOC(=O)N1CCC(N2CCC3(CC2)CN(c2cnccn2)c2ccc(F)cc23)CC1 [compound 752]
[1]; [7]
  Emax: 25 to 100%
[1]; [8]
  M4 Activity: xxx (activity was measured to be less than 2.0 μM)
[2]; [7]
  Emax: 25 to 100%
[2]; [9]
  M1 Activity: xxx (activity was measured to be less than 2.0 μM)

## CCCC1CCC(N2CCC3(CC2)CNc2ccc(Cl)cc23)CC1 (stereo not drawn) [compound 341]
[1]; [3]
  M4 Activity: x (activity was measured to be greater than 1.0 μM)
[1]; [4]
  Emax: < 65%
[2]; [5]
  M1 Activity: x (activity was measured to be greater than 1.0 μM)
[2]; [6]
  Emax: < 65%

## CC(=O)N1CC2(CCN(C3CCN(c4nccs4)CC3)CC2)c2ccccc21 [compound 894]
[1]; [7]
  Emax: < 25%
[1]; [10]
  M4 Activity: x (activity was measured to be greater than 5.0 μM)
[2]; [7]
  Emax: 25 to 100%
[2]; [11]
  M1 Activity: x (activity was measured to be greater than 5.0 μM)

## CN(C)C(=O)N1CC2(CCN(C3CCN(C(=O)C4(C(F)(F)F)CC4)CC3)CC2)c2cc(F)ccc21 [compound 727]
[1]; [7]
  Emax: 25 to 100%
[1]; [8]
  M4 Activity: xxx (activity was measured to be less than 2.0 μM)
[2]; [7]
  Emax: 25 to 100%
[2]; [9]
  M1 Activity: x (activity was measured to be greater than 5.0 μM)

## C#CC(=O)N1CCC(N2CCC3(CC2)CN(C(=O)N(C)C)c2ccc(F)cc23)CC1 [compound 574]
[1]; [7]
  Emax: 25 to 100%
[1]; [8]
  M4 Activity: xxx (activity was measured to be less than 2.0 μM)
[2]; [7]
  Emax: 25 to 100%
[2]; [9]
  M1 Activity: xx (activity was measured to be between 2.0 μM and 5.0 μM)

## CCOC(=O)N1C2CCC1CC(N1CCC3(CC1)CN(C(=O)c1cc(C)nn1C(C)(C)C)c1ccc(F)cc13)C2 (stereo not drawn) [compound 189]
[1]; [3]
  M4 Activity: x (activity was measured to be greater than 1.0 μM)
[1]; [4]
  Emax: 65 to 85%
[2]; [5]
  M1 Activity: xxx (activity was measured to be less than 0.1 μM)
[2]; [6]
  Emax: 65 to 85%

## CC(=O)N1CC2(CCN(C3CCC4(CC3)CC(C)=NO4)CC2)c2cc(F)ccc21 (stereo not drawn) [compound 1020]
[1]; [12]
  Emax: < 25%
[1]; Table 5
  EC50: 2000 to 10000 nM
[2]; [12]
  Emax: 25 to 100%
[2]; Table 5
  EC50: 2000 to 10000 nM

## COc1ccc(F)cc1N1CCC(N2CCC3(CC2)CN(C(=O)N(C)C)c2ccc(F)cc23)CC1 [compound 814]
[1]; [7]
  Emax: 25 to 100%
[1]; [10]
  M4 Activity: xx (activity was measured to be between 2.0 μM and 5.0 μM)
[2]; [7]
  Emax: 25 to 100%
[2]; [11]
  M1 Activity: x (activity was measured to be greater than 5.0 μM)

## CCOC(=O)N1CCC(N2CCC3(CC2)CN(C(C)=O)c2ccc(-c4cccc(C#N)c4)cc23)CC1 [compound 373]
[1]; [3]
  M4 Activity: xx (activity was measured to be between 0.1 μM and 1.0 μM)
[1]; [4]
  Emax: > 85%
[2]; [5]
  M1 Activity: xxx (activity was measured to be less than 0.1 μM)
[2]; [6]
  Emax: 65 to 85%

## CC#CCOC(=O)N1CC[C@@H](CN2CCC3(CC2)CN(C(=O)N(C)C)c2ccc(F)cc23)C1 [compound 939]
[1]; [7]
  Emax: 25 to 100%
[1]; [10]
  M4 Activity: xxx (activity was measured to be less than 2.0 μM)
[2]; [7]
  Emax: 25 to 100%
[2]; [11]
  M1 Activity: xxx (activity was measured to be less than 2.0 μM)

## CCOC(=O)N1CCC(N2CCC3(CC2)CN(C(=O)C(C)C)c2ccc(F)cc23)CC1 [compound 142]
[1]; [3]
  M4 Activity: x (activity was measured to be greater than 1.0 μM)
[1]; [4]
  Emax: > 85%
[2]; [5]
  M1 Activity: xxx (activity was measured to be less than 0.1 μM)
[2]; [6]
  Emax: 65 to 85%

## CC1(C)C(=O)c2ccccc2C12CCN([C@H]1C[C@@H]3CC[C@@H]1C3)CC2 [compound 483]
[1]; [7]
  Emax: < 25%
[1]; [8]
  M4 Activity: x (activity was measured to be greater than 5.0 μM)
[2]; [7]
  Emax: < 25%
[2]; [9]
  M1 Activity: x (activity was measured to be greater than 5.0 μM)

## CCOC(=O)N1CCC(N2CCC3(CC2)CN(C(=O)[C@@H](O)CC)c2ccc(F)cc23)CC1 [compound 1004]
[1]; [7]
  Emax: 25 to 100%
[1]; [10]
  M4 Activity: xxx (activity was measured to be less than 2.0 μM)
[2]; [7]
  Emax: 25 to 100%
[2]; [11]
  M1 Activity: xxx (activity was measured to be less than 2.0 μM)

## CCOC(=O)N1CCC(N2CCC3(CC2)CN(C(C)=O)c2c(-c4cccc(C)c4)cccc23)CC1 [compound 907]
[1]; [7]
  Emax: < 25%
[1]; [10]
  M4 Activity: x (activity was measured to be greater than 5.0 μM)
[2]; [7]
  Emax: 25 to 100%
[2]; [11]
  M1 Activity: x (activity was measured to be greater than 5.0 μM)

## O=C1CC2(CCN(C3CCCCCC3)CC2)c2cc(Cl)ccc21 [compound 983]
[1]; [7]
  Emax: 25 to 100%
[1]; [10]
  M4 Activity: xxx (activity was measured to be less than 2.0 μM)
[2]; [7]
  Emax: 25 to 100%
[2]; [11]
  M1 Activity: xxx (activity was measured to be less than 2.0 μM)

## CC(=O)N[C@H]1CC2(CCN(CC(=O)N(C)C3CCN(C)CC3)CC2)c2ccccc21 [compound 806]
[1]; [7]
  Emax: < 25%
[1]; [10]
  M4 Activity: x (activity was measured to be greater than 5.0 μM)
[2]; [7]
  Emax: < 25%
[2]; [11]
  M1 Activity: x (activity was measured to be greater than 5.0 μM)

## CN(C)C(=O)N1CC2(CCN(C[C@H]3CCN(c4nccs4)C3)CC2)c2cc(F)ccc21 [compound 1037]
[1]; [12]
  Emax: 25 to 100%
[1]; Table 5
  EC50: < 2000 nM
[2]; [12]
  Emax: 25 to 100%
[2]; Table 5
  EC50: 2000 to 10000 nM

## CCCOC(=O)N1C2CCC1CC(N1CCC3(CC1)CN(S(C)(=O)=O)c1ccc(F)cc13)C2 (stereo not drawn) [compound 294]
[1]; [3]
  M4 Activity: xx (activity was measured to be between 0.1 μM and 1.0 μM)
[1]; [4]
  Emax: 65 to 85%
[2]; [5]
  M1 Activity: xx (activity was measured to be between 0.1 μM and 1.0 μM)
[2]; [6]
  Emax: > 85%

## CCOC(=O)N1CCC(N2CCC3(CC2)CN(C(=O)c2cc(C)oc2C)c2ccc(F)cc23)CC1 [compound 335]
[1]; [3]
  M4 Activity: x (activity was measured to be greater than 1.0 μM)
[1]; [4]
  Emax: < 65%
[2]; [5]
  M1 Activity: x (activity was measured to be greater than 1.0 μM)
[2]; [6]
  Emax: < 65%

## CC(=O)N1CC2(CCN(C3CCN(c4nccs4)CC3)CC2)c2cc(F)ccc21 [compound 1019]
[1]; [12]
  Emax: 25 to 100%
[1]; Table 5
  EC50: < 2000 nM
[2]; [12]
  Emax: 25 to 100%
[2]; Table 5
  EC50: < 2000 nM

## CC1(C)C(=O)c2ccccc2C12CCN(C[C@H]1C[C@@H]3C=C[C@@H]1C3)CC2 [compound 20]
[1]; [3]
  M4 Activity: xx (activity was measured to be between 0.1 μM and 1.0 μM)
[1]; [4]
  Emax: < 65%
[2]; [5]
  M1 Activity: x (activity was measured to be greater than 1.0 μM)
[2]; [6]
  Emax: < 65%

## CC#CC(C)OC(=O)N1CC[C@@H](CN2CCC3(CC2)CN(C(=O)N(C)C)c2ccc(F)cc23)C1 (stereo partly drawn) [compound 479]
[1]; [7]
  Emax: < 25%
[1]; [8]
  M4 Activity: xxx (activity was measured to be less than 2.0 μM)
[2]; [7]
  Emax: 25 to 100%
[2]; [9]
  M1 Activity: xxx (activity was measured to be less than 2.0 μM)
